Results taken from patent publication US20240239752A1, “BICYCLIC HETEROAROMATIC INHIBITORS OF KLK5” (BioCryst Pharmaceuticals, Inc., priority 2021, published 2024).

Biological target: T1, recombinant human KLK5 (Homo sapiens, UniProt Q9Y337)
T1 construct: purchased Novoprotein or R&D Systems C415 or 1108-SE
T1 sequence (Q9Y337 23-293): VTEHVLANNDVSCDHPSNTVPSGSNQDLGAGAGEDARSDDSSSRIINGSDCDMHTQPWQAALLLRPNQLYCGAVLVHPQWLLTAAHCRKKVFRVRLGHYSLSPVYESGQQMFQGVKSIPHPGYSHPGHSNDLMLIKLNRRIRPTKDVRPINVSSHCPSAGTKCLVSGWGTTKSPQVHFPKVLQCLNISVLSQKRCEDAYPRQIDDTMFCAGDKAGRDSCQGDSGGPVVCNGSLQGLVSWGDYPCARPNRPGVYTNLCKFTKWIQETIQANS
Assay: Kallikrein (KLK) 5 enzymatic assay (Boc-VPR-AMC fluorogenic substrate)
Format: biochemical
Details: recombinant human KLK5 0.1 μg/well, Boc-VPR-AMC 100 μM, pH 7.5, room temperature, 1% DMSO; tested a minimum of three times
How it was run: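 Fluorogenic rate assay at pH 7.5 (0.1 M NaH2PO4, 1% DMSO, room temperature), run at least three times per compound. Compound was premixed with 0.1 μg/well recombinant human KLK5 before adding 100 μM Boc-VPR-AMC; AMC release was read at ex 380/em 460 nm, and IC50 derived from inhibition of rate vs DMSO control.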

## Nc1nccc2c(-c3ccc4c(c3)c(COc3ccccc3CC(=O)O)nn4C3CCCC3)cccc12 [Compound 223b, 2-(2-((5-(1-aminoisoquinolin-5-yl)-1-cyclopentyl-1H-indazol-3-yl)methoxy)phenyl)acetic acid]
  IC50: < 1 µM

## Nc1nccc2ccc(-c3ccc4c(c3)c(COc3ccccc3CC(=O)O)nn4C3CCOCC3)cc12 [Compound 281g, 2-(2-((5-(1-aminoisoquinolin-7-yl)-1-(tetrahydro-2H-pyran-4-yl)-1H-indazol-3-yl)methoxy)phenyl)acetic acid]
  IC50: < 1 µM

## COC(=O)N1CCC2(CC1)CC(Oc1cccc(C)c1CC(=O)O)c1cc(-c3cccc4c(N)nccc34)ccc12 (centres unmarked) [Compound 382b, 2-(2-((5-(1-aminoisoquinolin-5-yl)-1′-(methoxycarbonyl)-2,3-dihydrospiro[indene-1,4′-piperidin]-3-yl)oxy)-6-methylphenyl)acetic acid]
  IC50: < 1 µM

## COc1cccc(CC(=O)O)c1OCc1coc2c(OC)cc(-c3ccc4ccnc(N)c4c3)cc12 [Compound 267g, 2-(2-((5-(1-aminoisoquinolin-7-yl)-7-methoxybenzofuran-3-yl)methoxy)-3-methoxyphenyl)acetic acid]
  IC50: > 10 µM

## NCc1cc(-c2cccc3c(N)nccc23)cc2c(COc3ccccc3CC(=O)O)nn(C3CCCCO3)c12 (centres unmarked) [Compound 287a, 2-(2-((5-(1-aminoisoquinolin-5-yl)-7-(aminomethyl)-1-(tetrahydro-2H-pyran-2-yl)-1H-indazol-3-yl)methoxy)phenyl)acetic acid]
  IC50: 1 to 10 µM

## CC(C)n1nc(COc2ccccc2CC(=O)O)c2cc(-c3cc4cc(N)ccc4cn3)ccc21 [Compound 38c, 2-(2-((5-(6-aminoisoquinolin-3-yl)-1-isopropyl-1H-indazol-3-yl)methoxy)phenyl)acetic acid]
  IC50: > 10 µM

## CCOC(=O)N1CCC2(CC1)CC(Oc1ccccc1CC(=O)O)c1cc(-c3cccc4c(N)nccc34)ccc12 (centres unmarked) [Compound 372b, 2-(2-((5-(1-aminoisoquinolin-5-yl)-1′-(ethoxycarbonyl)-2,3-dihydrospiro[indene-1,4′-piperidin]-3-yl)oxy)phenyl)acetic acid]
  IC50: < 1 µM

## CC(C)COC(=O)N1CC[C@H](n2nc(COc3ccccc3CC(=O)O)c3cc(-c4ccc5ccnc(N)c5c4)ccc32)C1 [Compound 360c, (S)-2-(2-((5-(1-aminoisoquinolin-7-yl)-1-(1-(isobutoxycarbonyl)pyrrolidin-3-yl)-1H-indazol-3-yl)methoxy)phenyl)acetic acid]
  IC50: < 1 µM

## CCC(=O)N1CCC2(CC1)CC(Oc1ccccc1CC(=O)O)c1cc(-c3ccc4ccnc(N)c4c3)ccc12 (centres unmarked) [Compound 386b, 2-(2-((5-(1-aminoisoquinolin-7-yl)-1′-propionyl-2,3-dihydrospiro[indene-1,4′-piperidin]-3-yl)oxy)phenyl)acetic acid]
  IC50: < 1 µM

## CC(C)n1nc(C(=O)Nc2ccccc2C(=O)O)c2cc(-c3ccc(C(=N)N)cc3)ccc21 [Compound 3b, 2-(5-(4-carbamimidoylphenyl)-1-isopropyl-1H-indazole-3-carboxamido)benzoic acid]
  IC50: > 10 µM

## CC(C)N1CCN(C2CC(Oc3ccccc3CC(=O)O)c3cc(-c4ccc5ccnc(N)c5c4)ccc32)CC1 (centres unmarked) [Compound 457b]
  IC50: < 1 µM

## Nc1nccc2ccc(-c3ccc4c(c3)[C@H](Oc3cc(F)ccc3CC(=O)O)CC4)cc12 [Compound 421c, (R)-2-(2-((6-(1-aminoisoquinolin-7-yl)-2,3-dihydro-1H-inden-1-yl)oxy)-4-fluorophenyl)acetic acid]
  IC50: < 1 µM

## Nc1nccc2ccc(-c3ccc4c(c3)C(COc3ccccc3CC(=O)O)CC43CCCC3)cc12 (centres unmarked) [Compound 402a, 2-(2-((5′-(1-aminoisoquinolin-7-yl)-2′,3′-dihydrospiro[cyclopentane-1,1′-inden]-3′-yl)methoxy)phenyl)acetic acid]
  IC50: 1 to 10 µM

## COc1ccc(CC(=O)O)c(OCc2c3cc(-c4ccc5ccnc(N)c5c4)ccc3nn2C2CCCCC2)c1 [Compound 16c, 2-(2-((5-(1-aminoisoquinolin-7-yl)-2-cyclohexyl-2H-indazol-3-yl)methoxy)-4-methoxyphenyl)acetic acid]
  IC50: 1 to 10 µM

## CC[C@H](C)n1nc(COc2ccccc2CC(=O)O)c2cc(-c3cccc4c(N)nccc34)ccc21 [Compound 193b, (S)-2-(2-((5-(1-aminoisoquinolin-5-yl)-1-(sec-butyl)-1H-indazol-3-yl)methoxy)phenyl)acetic acid]
  IC50: < 1 µM

## Nc1nccc2ccc(-c3ccc4c(c3)[C@H](Oc3cccc(OC(F)(F)F)c3CC(=O)O)CC4)cc12 [Compound 434c, (R)-2-(2-((6-(1-aminoisoquinolin-7-yl)-2,3-dihydro-1H-inden-1-yl)oxy)-6-(trifluoromethoxy)phenyl)acetic acid]
  IC50: 1 to 10 µM

## N#Cc1cccc(O[C@@H]2CCc3ccc(-c4ccc5ccnc(N)c5c4)cc32)c1CC(=O)O [Compound 432c, (R)-2-(2-((6-(1-aminoisoquinolin-7-yl)-2,3-dihydro-1H-inden-1-yl)oxy)-6-cyanophenyl)acetic acid]
  IC50: 1 to 10 µM

## NCc1cc(-c2cccc3c(N)nccc23)cc2c(COc3ccccc3CC(=O)O)n[nH]c12 [Compound 280a, 2-(2-((5-(1-aminoisoquinolin-5-yl)-7-(aminomethyl)-1H-indazol-3-yl)methoxy)phenyl)acetic acid]
  IC50: 1 to 10 µM

## Cc1ccc(CC(=O)O)c(OCc2nn(C(C)C)c3ccc(-c4cccc(C(=N)N)c4)cc23)c1 [Compound 103c, 2-(2-((5-(3-carbamimidoylphenyl)-1-isopropyl-1H-indazol-3-yl)methoxy)-4-methylphenyl)acetic acid]
  IC50: < 1 µM

## Cc1ccc(CC(=O)O)c(O[C@@H]2CCc3ccc(-c4cccc5c(N)nccc45)cc32)c1 [Compound 426b, (R)-2-(2-((6-(1-aminoisoquinolin-5-yl)-2,3-dihydro-1H-inden-1-yl)oxy)-4-methylphenyl)acetic acid]
  IC50: < 1 µM

## CC(C)CCN1CCC(n2nc(COc3ccccc3CC(=O)O)c3cc(-c4ccc5ccnc(N)c5c4)ccc32)C1 (centres unmarked) [Compound 309c, 2-(2-((5-(1-aminoisoquinolin-7-yl)-1-(1-isopentylpyrrolidin-3-yl)-1H-indazol-3-yl)methoxy)phenyl)acetic acid]
  IC50: < 1 µM

## CCCn1nc(COc2ccccc2CC(=O)O)c2cc(-c3cccc4c(N)nccc34)ccc21 [Compound 187b, 2-(2-((5-(1-aminoisoquinolin-5-yl)-1-propyl-1H-indazol-3-yl)methoxy)phenyl)acetic acid]
  IC50: < 1 µM

## Cc1cccc(OC2CC3(CCN(S(C)(=O)=O)CC3)c3ccc(-c4ccc5ccnc(N)c5c4)cc32)c1CC(=O)O (centres unmarked) [Compound 448c, 2-(2-((5-(1-aminoisoquinolin-7-yl)-1′-(methylsulfonyl)-2,3-dihydrospiro[indene-1,4′-piperidin]-3-yl)oxy)-6-methylphenyl)acetic acid]
  IC50: < 1 µM

## Nc1nccc2ccc(-c3ccc4c(c3)c(COc3cccc(C5CC5)c3CC(=O)O)nn4C3CCOC3)cc12 (centres unmarked) [Compound 290d, 2-(2-((5-(1-aminoisoquinolin-7-yl)-1-(tetrahydrofuran-3-yl)-1H-indazol-3-yl)methoxy)-6-cyclopropylphenyl)acetic acid]
  IC50: < 1 µM

## N#Cc1cccc(OCc2nn(C3CCOC3)c3ccc(-c4ccc5ccnc(N)c5c4)cc23)c1CC(=O)O (centres unmarked) [Compound 292d, 2-(2-((5-(1-aminoisoquinolin-7-yl)-1-(tetrahydrofuran-3-yl)-1H-indazol-3-yl)methoxy)-6-cyanophenyl)acetic acid]
  IC50: 1 to 10 µM

## Nc1nccc2c(-c3cc(F)c4c(c3)C(Oc3ccccc3CC(=O)O)CC4)cccc12 (centres unmarked) [Compound 208b, 2-(2-((6-(1-aminoisoquinolin-5-yl)-4-fluoro-2,3-dihydro-1H-inden-1-yl)oxy)phenyl)acetic acid]
  IC50: < 1 µM

## COCCN1CC[C@H](n2nc3ccc(-c4ccc5ccnc(N)c5c4)cc3c2COc2ccccc2CC(=O)O)C1 [Compound 118b, (S)-2-(2-((5-(1-aminoisoquinolin-7-yl)-2-(1-(2-methoxyethyl)pyrrolidin-3-yl)-2H-indazol-3-yl)methoxy)phenyl)acetic acid]
  IC50: 1 to 10 µM

## CCn1nc(COc2ccccc2CC(=O)O)c2cc(-c3ccc4ccnc(N)c4c3)ccc21 [Compound 179b, 2-(2-((5-(1-aminoisoquinolin-7-yl)-1-ethyl-1H-indazol-3-yl)methoxy)phenyl)acetic acid]
  IC50: < 1 µM

## CC(=O)N1CCC2(CC1)CC(Oc1cccc(C)c1CC(=O)O)c1cc(-c3cccc4c(N)nccc34)ccc12 (centres unmarked) [Compound 407b, 2-(2-((1′-acetyl-5-(1-aminoisoquinolin-5-yl)-2,3-dihydrospiro[indene-1,4′-piperidin]-3-yl)oxy)-6-methylphenyl)acetic acid]
  IC50: < 1 µM

## Cc1ccc(CC(=O)O)c(OCc2c3cc(-c4ccc5ccnc(N)c5c4)ccc3nn2C2CCC2)c1 [Compound 17e, 2-(2-((5-(1-aminoisoquinolin-7-yl)-2-cyclobutyl-2H-indazol-3-yl)methoxy)-4-methylphenyl)acetic acid]
  IC50: > 10 µM

## CC(C)n1nc(COc2ccccc2CC(=O)O)c2cc(-c3ccc(C(=N)N)cc3)ccc21 [Compound 2g, 2-(2-((5-(4-carbamimidoylphenyl)-1-isopropyl-1H-indazol-3-yl)methoxy)phenyl)acetic acid]
  IC50: > 10 µM

## NC(=O)c1cc(-c2cccc3c(N)nccc23)cc2c(COc3ccccc3CC(=O)O)nn(C3CCCCO3)c12 (centres unmarked) [Compound 286a, 2-(2-((5-(1-aminoisoquinolin-5-yl)-7-carbamoyl-1-(tetrahydro-2H-pyran-2-yl)-1H-indazol-3-yl)methoxy)phenyl)acetic acid]
  IC50: 1 to 10 µM
